Converted amounts (≈) assume the structure as drawn.

For the assay, the system named is HCT-116. Nature of the assay: Cytotoxicity against human HCT116 cells. The assay is classed as functional, cell-based.
Molecule `Cc1oc2nc1C(=O)N[C@@H](C(C)C)c1nc(cs1)C(=O)N[C@@H](C(C)C)c1nc(cs1)C(=O)N[C@H]2C(C)C` [BISTRATAMIDE H] yielded an IC50 of 1.7 µg/mL (≈ 3.12 µM).

In the case of `Cc1oc2nc1C(=O)N[C@@H](C(C)C)c1nc(co1)C(=O)N[C@@H](C(C)C)c1nc(cs1)C(=O)N[C@H]2C(C)C` [BISTRATAMIDE G], inhibition was half-maximal at 5 µg/mL (≈ 9.46 µM) (IC50).

Molecule `CC(C)[C@@H]1NC(=O)c2csc(n2)[C@H](C(C)C)NC(=O)c2csc(n2)[C@H](C(C)C)NC(=O)[C@H]([C@@H](C)O)NC1=O` [BISTRATAMIDE J] returned a 50% inhibitory concentration (IC50) of 1 µg/mL (≈ 1.77 µM).

In the case of `CC(C)[C@@H]1NC(=O)c2csc(n2)[C@H](C(C)C)NC(=O)c2coc(n2)[C@H](C(C)C)NC(=O)[C@H]([C@@H](C)O)NC1=O` [BISTRATAMIDE I], 9 µg/mL (≈ 16.4 µM) corresponded to half-maximal inhibition (IC50).

`CC(C)[C@@H]1NC(=O)c2csc(n2)[C@H](C(C)C)NC(=O)c2csc(n2)[C@H](C(C)C)NC(=O)[C@H]2N=C1O[C@@H]2C` [BISTRATAMIDE E] came in with a concentration for half-maximal inhibition (IC50) of 7.9 µg/mL (≈ 14.4 µM).

`CC(C)[C@@H]1NC(=O)[C@H]2N=C(O[C@@H]2C)[C@H](C(C)C)NC(=O)c2csc(n2)[C@H](C(C)C)NC(=O)[C@@H]2COC1=N2` [BISTRATAMIDE F] showed a 50% inhibitory concentration (IC50) of 28 µg/mL (≈ 52.6 µM). Against the preceding molecule, the IC50 is about 3.5-fold higher.

For the origin of these results see ChEMBL document CHEMBL1159341, “Bistratamides E-J, modified cyclic hexapeptides from the Philippines ascidian Lissoclinum bistratum” (J Nat Prod, 2003).
